Read-outs that look alike come from different tables or passages of the source.
Columns and labels:
[1] = tested on: A549 (lung adenocarcinoma); test: MTT proliferation assay, A549; type: cell-based; conditions: Homo sapiens, 72 h
Protocol: (§1) Human tumor cell lines HeLa (cervical carcinoma), SW620 (colorectal adenocarcinoma, metastatic), A549 (lung adenocarcinoma), MCF−7 (breast adenocarcinoma), CFPAC-1 (pancreatic adenocarcinoma, metastatic), HCT-116 (colorectal carcinoma), and HepG2 (hepatocellular carcinoma), and normal cell lines HFF-1 (foreskin fibroblasts) and WI-38 (immortalized human lung fibroblast), were from the US American Type Culture Collection (ATCC, Manassas, VA, USA). Cells were cultured in a liquid nutrient medium (Dulbecco’s Modified Eagle Medium, LONZA, Basel, Switzerland) supplemented with 10% fetal bovine serum (FBS, Gibco, Grand Island, NY, USA), 2 mM L-glutamine (GIBCO, Grand Island, NY, USA), 100 μg/mL penicillin, and 100 μg/mL streptomycin (LONZA, Basel, Switzerland), in an incubator (NÜVE, Ankara, Turkey), at a humid atmosphere with 5% CO2 at 37 °C. Trypsin/EDTA Solution (Lonza, Basel, Switzerland), was used for cell passaging and cell detachment.
(§2) Adherent cells were seeded on 96 well microtiter plates (Falcon, New York, NY, USA) at a seeding density of 5000 cells per well, added in 150 μL of cell suspension in a nutrient medium. 24 h after seeding, cells were treated with compound 4b–4g, 4i, 4k–4t, 4v, 7c–7g, and 7i–7q dilutions in the range of 0.01 μM to 100 μM. L-ascoric acid (Sigma Aldrich, Darmstadt, Germany) and Carboxyamidotriazole (Sigma Aldrich, Darmstadt, Germany) were used as control compounds. Incubation of the cells with the compounds were performed for 72 h in a 5% CO2, in humid atmosphere at 37 °C. After incubation, nutrient medium was removed and 40 μL of the MTT reagent ([…]-2,5-diphenyltetrazole bromide (Invitrogen, Carlsbad, CA, USA) was added to each well. 3 h after incubation, 160 μL of DMSO (VWR CHEMICALS, Radnor, PA, USA) were added to each well to dissolve the crystals of purple formazane. The absorbance was measured at 570 nm (TECAN SUNRISE Microtiter plate reader (Männedorf, Switzerland). The experimentally measured optical densities (OD) were converted to the PG (percentage of growth), using the formulas according to the protocol assumed by NIH (National Institute of Health). The IC50 values (concentration causing 50% cell growth inhibition) for each compound were calculated by regression analysis of the survival count curve of the concentrations of the tested compounds. The results were processed in Excel 2010 (Microsoft, Redmond, WA, USA).

[2] = tested on: CFPAC-1 (ductal pancreatic adenocarcinoma); test: MTT proliferation assay, CFPAC-1; type: cell-based; conditions: Homo sapiens, 72 h
Protocol: as §1, §2

[3] = tested on: HCT-116 (colorectal carcinoma); test: MTT proliferation assay, HCT-116; type: cell-based; conditions: Homo sapiens, 72 h
Protocol: as §1, §2

[4] = tested on: HeLa (cervical carcinoma); test: MTT proliferation assay, HeLa; type: cell-based; conditions: Homo sapiens, 72 h
Protocol: as §1, §2

[5] = tested on: HepG2 (hepatocellular carcinoma); test: MTT proliferation assay, HepG2; type: cell-based; conditions: Homo sapiens, 72 h
Protocol: as §1, §2

[6] = tested on: MCF-7 (breast adenocarcinoma); test: MTT proliferation assay, MCF-7; type: cell-based, Human; conditions: Homo sapiens, MCF7; 72 h, MTT
Protocol: as §1, §2

[7] = tested on: SW620 (colorectal adenocarcinoma, metastatic); test: MTT proliferation assay, SW620; type: cell-based; conditions: Homo sapiens, SW-620, 72 h
Protocol: as §1, §2

[8] = tested on: WI-38 (lung fibroblasts); test: MTT proliferation assay, WI-38; type: cell-based; conditions: Homo sapiens, 72 h, normal lung fibroblasts
Protocol: as §1, §2

[9] = DPPH radical scavenging assay; type: biochemical
Protocol: Likewise, L-ASA, the 1,2,3-triazole L-ASA derivatives with free C2-OH and C3-OH groups were expected to be potent antioxidants. Therefore, they were tested as radical scavengers by reaction with the stable free radical 2,2-diphenyl-1-picrylhydrazyl (DPPH^•).
Antioxidant capacity of selected compounds was assessed by 2,2-diphenyl-1-picrylhydrazyl assay (DPPH, Sigma Aldrich, Darmstadt, Germany), in which the antioxidant activity of compounds is measured by the reaction between a stable radical of 1,1-diphenyl-2-picylhydrazil (DPPH^•) and a selected compound according to the manufacturer recommendations. Briefly, compounds 4b–4e, 4f–4h, 4k, 4l, 4o, 4p–4s, 4t, 4v, 7c–7f, 7i–7n, 7q, 7p, and 7o were tested at 0.06, 0.12, 0.18, 0.23, 0.25, and 0.28 mM. L-ascorbic acid was used as the reference compound. Absorbance was measured 5 and 10 min after incubation of the compounds with the DPPH reagent. The reduction of DPPH with selected compounds was monitored by measuring the absorbance at a wavelength of 517 nm on the monochromator (Infinite M200 PRO, TECAN, Männedorf, Switzerland).

[10] = 5 min treatment, read-out: IC50 of DPPH• inhibition, Treatm. 5 min
[11] = 10 min treatment, read-out: IC50 of DPPH• inhibition, Treatm. 10 min

IC50 [1] [µM]	IC50 [2] [µM]	IC50 [3] [µM]	IC50 [4] [µM]	IC50 [5] [µM]	IC50 [6] [µM]	IC50 [7] [µM]	melting point [°C]	IC50 [9, 10] [µM]	IC50 [9, 11] [µM]	Structure (SMILES)	IC50 [8] [µM]
> 100	> 100	> 100	> 100	> 100	> 100	> 100	155 to 157			O=C1O/C(=C\Cn2cc(-c3cccc(O)c3)nn2)C(O)=C1O [Compound 7j, 4,5-didehydro-5,6-dideoxy-6-[4-(3-hydroxyphenyl)-1,2,3-triazole-1-yl]-L-ascorbic acid]	> 100
> 100	> 100	> 100	> 100	> 100	> 100	> 100	≥ 200	230	230	O=C1O/C(=C\Cn2cc(-c3cc(F)cc(F)c3)nn2)C(O)=C1O [Compound 7d]	> 100
> 100	> 100	> 100	> 100	> 100	> 100	> 100	176 to 178	200 ± 10	200	O=C1O/C(=C\Cn2cc(C3CC3)nn2)C(O)=C1O [Compound 7l, 6-[4-cyclopropyl-1,2,3-triazole-1-yl]-4,5-didehydro-5,6-dideoxy-L-ascorbic acid]	> 100
> 100	> 100	> 100	> 100	> 100	> 100	> 100	230 to 232			CCCCCc1ccc(-c2cn(C/C=C3\OC(=O)C(O)=C3O)nn2)cc1 [Compound 7k, 4,5-didehydro-5,6-dideoxy-6-[4-(4-pentylphenyl)-1,2,3-triazole-1-yl]-L-ascorbic acid]	> 100
> 100	> 100	> 100	> 100	> 100	> 100	> 100	180 to 183	200	190	CCCCc1cn(C/C=C2\OC(=O)C(O)=C2O)nn1 [Compound 7m, 6-[4-butyl-1,2,3-triazole-1-yl]-4,5-didehydro-5,6-dideoxy-L-ascorbic acid]	> 100
> 100	> 100	> 100	> 100	> 100	> 100	> 100	172 to 173	70	70	O=C1O/C(=C\Cn2cc(CCO)nn2)C(O)=C1O [Compound 7q, 6-[4-(2-hydroxyethyl)-1,2,3-triazole-1-yl]-4,5-didehydro-5,6-dideoxy-L-ascorbic cid]	> 100
> 100	> 100	> 100	> 100	> 100	> 100	> 100	160 to 162	200	200	O=C1O/C(=C\Cn2cc(CCCCl)nn2)C(O)=C1O [Compound 7p, 6-[4-chloropropyl-1,2,3-triazole-1-yl]-4,5-didehydro-5,6-dideoxy-L-ascorbic acid]	> 100
> 100	> 100	> 100	> 100	> 100	> 100	> 100	219 to 222			O=C1O/C(=C\Cn2cc(-c3ccc(Br)cc3)nn2)C(O)=C1O [Compound 7e, 6-[4-(4-bromophenyl)-1,2,3-triazole-1-yl]-4,5-didehydro-5,6-dideoxy-L-ascorbic acid]	> 100
> 100	> 100	> 100	> 100	> 100	> 100	> 100	167 to 169	100 ± 50	100 ± 40	O=C1O/C(=C\Cn2cc(-c3ccccc3O)nn2)C(O)=C1O [Compound 7i, 4,5-didehydro-5,6-dideoxy-6-[4-(2-hydroxyphenyl)-1,2,3-triazole-1-yl]-L-ascorbic acid]	> 100
> 100	> 100	> 100	> 100	> 100	> 100	> 100	182 to 184	200	200	CC(C)(C)c1cn(C/C=C2\OC(=O)C(O)=C2O)nn1 [Compound 7o, 6-[4-tert-butyl-1,2,3-triazole-1-yl]-4,5-didehydro-5,6-dideoxy-L-ascorbic acid]	> 100
> 100	> 100	> 100	> 100	> 100	> 100	> 100	169 to 171	140	100	CCCCCCCCCCc1cn(C/C=C2\OC(=O)C(O)=C2O)nn1 [Compound 7n, 6-(4-decyl-1,2,3-triazol-1-il)-4,5-didehydro-5,6-dideoxy-L-ascorbic acid]	> 100
> 100	> 100	> 100	> 100	> 100	> 100	> 100	≥ 200			O=C1O/C(=C\Cn2cc(-c3cc(C(F)(F)F)cc(C(F)(F)F)c3)nn2)C(O)=C1O [Compound 7c, 4,5-didehydro-5,6-dideoxy-(4-(3,5-di-(trifluoromethyl)phenyl)-1,2,3-triazol-1-yl)-L-ascorbic acid]	> 100
> 100	> 100	> 100	> 100	> 100	> 100	> 100	198 to 199	> 280	260	COc1ccc(-c2cn(C/C=C3\OC(=O)C(O)=C3O)nn2)cc1 [Compound 7g, 4,5-didehydro-5,6-dideoxy-6-[4-(4-methoxyphenyl)-1,2,3-triazole-1-yl]-L-ascorbic acid]	> 100
> 100	> 100	> 100	> 100	> 100	> 100	> 100	188 to 192	100 ± 20	100 ± 20	Cc1ccc(-c2cn(C/C=C3\OC(=O)C(O)=C3O)nn2)cc1 [Compound 7f, 6-[4-tolyl-1,2,3-triazole-1-yl]-4,5-didehydro-5,6-dideoxy-L-ascorbic acid]	> 100
2.8	0.14		8.81	9.04	0.096	0.08				O=c1[nH]cc(F)c(=O)[nH]1 [Compound 5-FU, 5-fluorouracil, reference compound]	0.94

From paper PMC6801448, “The Antioxidant and Antiproliferative Activities of 1,2,3-Triazolyl-L-Ascorbic Acid Derivatives” (International Journal of Molecular Sciences, 2019)
